Molecules are shown by their SMILES.

In general, inhibition refers to how much of the control response was suppressed. The term IC50 denotes the concentration needed to halve the response being measured.

The first experiment deals with Isolated Rat Bladder Strips. The experiment is described as follows: Inhibition of contractions in isolated rat bladder strips (KCl-stimulated). Format: cell-based, Sprague-Dawley rats. To be noted: 30 μM, 15 mM KCl, read-out: Percent inhibition (I) at 30 μM. The text has this: The smooth muscle relaxing activity of the compounds of this invention was established in accordance with standard pharmaceutically accepted test procedures with representative compounds as follows:
Sprague-Dawley rats (150-200 g) are rendered unconscious by CO2 asphyxiation and then euthanized by cervical dislocation. The bladder is removed into warm (37 deg. C.) physiological salt solution (PSS) of the following composition (mM): NaCl, 118.4; KCl, 4.7; CaCl2, 2.5; […]; NaHCO3, 24.9; KH2 PO4, 1.2; glucose, 11.1; EDTA, 0.023; gassed with […]; pH 7.4. The bladder is opened and then cut into strips 1-2 mm in width and 7-10 mm in length. The strips are subsequently suspended in a 10 mL tissue bath under an initial resting tension of 1.5 g. The strips are held in place by two surgical clips one of which is attached to a fixed hook while the other is attached to an isometric force transducer. […] The carbachol is then washed out and the tissue allowed to relax to its resting level of activity. Following a further 30 min period of recovery an additional 15 mM KCl are introduced into the tissue bath. This increase in KCl concentration results in a large increase in the amplitude of spontaneous contractions (and initiation of contractions in previously quiescent strips) superimposed upon a small increase in basal tone. Following stabilization of this enhanced level of contractile activity, incremental increases in the concentration of test compound or vehicle are introduced into the tissue bath. Contractile activity is measured for each compound or vehicle concentration during the last minute of a 30 minute challenge.
The isometric force developed by the bladder strips is measured using a […] to elicit 50% inhibition of pre-drug contractile activity (IC50 concentration) and is calculated from this concentration-response curve.
Turning to `CC(C)N(C)c1c(NCc2ccncc2)c(=O)c1=O` [Example 7, 3-(Isopropyl-methyl-amino)-4-[(pyridin-4-ylmethyl)-amino]-cyclobut-3-ene-1,2-dione], the inhibition at 30 µM is 27.3 ± 7%.

With `CCC(C)(C)Nc1c(NCc2cc3cc([N+](=O)[O-])ccc3o2)c(=O)c1=O` [Example 9, 3-(1,1-Dimethyl-propylamino)-4-[(5-nitro-benzofuran-2-ylmethyl)-amino]-cyclobut-3-ene-1,2-dione], the inhibition at 30 µM is 22.2 ± 7.4%.

For `CC(C)(C)Nc1c(NCc2cc3cc(C#N)ccc3o2)c(=O)c1=O` [Example 13, 2-[(2-tert-butylamino-3,4-dioxo-cyclobut-1-enylamino)-methyl]-benzofuran-5-carbonitrile], the inhibition at 30 µM was 19.9 ± 8.5%.

On to `C[C@@H](Nc1c(NCc2cc3cc(C#N)ccc3o2)c(=O)c1=O)C(C)(C)C` [Example 12, 2-{[3,4-Dioxo-2-(1,2,2-trimethyl-propylamino)-cyclobut-1-enylamino]-methyl}-benzofuran-5-carbonitrile], for which the inhibition at 30 µM was found to be 5.5 ± 4%.

In the case of `CC(C)(C)Nc1c(NCc2cc3cc([N+](=O)[O-])ccc3o2)c(=O)c1=O` [Example 10, 3-tert-butylamino-4-[(5-nitro-benzofuran-2-ylmethyl)-amino]-cyclobut-3-ene-1,2-dione], the inhibition at 30 µM turned out to be 11.5 ± 3.2%.

As for `CC(C)(Cc1ccccc1)Nc1c(NCc2cc3cc(C#N)ccc3o2)c(=O)c1=O` [Example 14, 2-{[2-(1,1-Dimethyl-2-phenyl-ethylamino)-3,4-dioxo-cyclobut-1-enylamino]-methyl}-benzofuran-5-carbonitrile], the inhibition at 30 µM was 31.9 ± 6.4%.

Still in this experiment, the particulars now being: 0.5 h, 30 μM, 15 mM KCl, read-out: Percent contraction (C) at 30 μM.
Consider `C[C@@H](Nc1c(NCc2cc3cc([N+](=O)[O-])ccc3o2)c(=O)c1=O)C(C)(C)C` [Example 8, 3-[(5-nitro-benzofuran-2-ylmethyl)-amino]-4-(1,2,2-trimethylpropylamino)-cyclobut-3-ene-1,2-dione], for which the activity at 30 µM turned out to be 8.5 ± 1.4%.

The same experiment, now with this note: 0.5 h, 15 mM KCl, 30 minute challenge.
Regarding `CCC(C)(C)Nc1c(NCc2ccncc2)c(=O)c1=O` [Example 1, 3-(1,1-Dimethylpropylamino)-4-[(pyridin-4-ylmethyl)-amino]-cyclobut-3-ene-1,2-dione], the midpoint of inhibition, the IC50, lay at 420 ± 60 nM.

In turn, `C[C@@H](Nc1c(NCc2cc3cc(C#N)ccc3o2)c(=O)c1=O)C(C)(C)C` [Example 12, 2-{[3,4-Dioxo-2-(1,2,2-trimethyl-propylamino)-cyclobut-1-enylamino]-methyl}-benzofuran-5-carbonitrile] gave an IC50 of 3750 ± 1440 nM.

In the case of `CCC(C)(C)Nc1c(NCc2cc3cc(C#N)ccc3o2)c(=O)c1=O` [Example 11, 2-{[2-(1,1-Dimethyl-propylamino)-3,4-dioxo-cyclobut-1-enylamino]-methyl}-benzofuran-5-carbonitrile], the IC50 was determined as 1560 ± 160 nM.

In turn, `CCC(C)(C)Nc1c(NCc2cccnc2)c(=O)c1=O` [Example 2] yielded an IC50 of 1250 ± 390 nM.

For `CC(Nc1c(NCc2ccncc2)c(=O)c1=O)C(C)(C)C` (stereo not drawn) [Example 15, 3-[(Pyridin-4-ylmethyl)-amino]-4-(1,2,2-trimethyl-propylamino)-cyclobut-3-ene-1,2-dione], it took 2450 ± 990 nM to reach half-maximal inhibition (IC50).

`CCC(C)(C)Nc1c(NCc2oc3ccc(C#N)cc3c2Cl)c(=O)c1=O` [Example 16, 2-{[2-(1,1-Dimethyl-propylamino)-3,4-dioxo-cyclobut-1-enylamino]-methyl}-3-chloro-benzofuran-5-carbonitrile]: the half-maximal inhibitory concentration (IC50) turned out to be 1300 ± 630 nM.

`CC(C)(C)Nc1c(NCc2ccncc2)c(=O)c1=O` [Example 4, 3-tert-Butylamino-4-[(pyridin-4-ylmethyl)amino]-cyclobut-3-ene-1,2-dione]: the IC50 was 3000 ± 200 nM.

In the case of `CC(C)(C)Nc1c(NCc2ccccn2)c(=O)c1=O` [Example 6, 3-tert-Butylamino-4-[(pyridin-2-ylmethyl)amino]-cyclobut-3-ene-1,2-dione], the half-inhibitory concentration (IC50) stood at 11400 ± 4300 nM.

`CCC(C)(C)Nc1c(NCc2ccccn2)c(=O)c1=O` [Example 3, 3-(1,1-Dimethylpropylamino)-4-[(pyridin-2-ylmethyl)amino]-cyclobut-3-ene-1,2-dione] yielded an IC50 of 1250 ± 340 nM.

In turn, `CC(C)(C)Nc1c(NCc2cccnc2)c(=O)c1=O` [Example 5, 3-tert-Butylamino-4-[(pyridin-3-ylmethyl)amino]-cyclobut-3-ene-1,2-dione] showed an IC50 of 2630 ± 220 nM.

The test system of another experiment is hypertrophied bladder (detrussor) smooth muscle. The experiment is described as follows: Inhibition of spontaneous contractions in vivo, hypertrophied rat bladder model (conscious rats, cystometry). Further details: species or system female Sprague-Dawley rats. Particulars: 10 mg/kg p.o., 3 animals, conscious female rats, second cystometry one hour after dosing. Here is the method: In addition, we tested the ability of the compound of Example 1, as representative of the other compounds of this invention, to inhibit the hyperactivity of hypertrophied bladder (detrussor) smooth muscle in conscious female rats with hypertrophied bladders and thereby alleviate urinary incontinence according to the protocol described by Malmgrem et al., J. Urol. 142:1134, 1989.
Female Sprague-Dawley rats, ranging in weight from 190-210 g are used. Up to 25 animals are prepared each time. After development of bladder hypertrophy 4-8 animals are used per test.
Compounds are dissolved in PEG-200 and administered by gastric gavage or intraveneously in a volume of 5 ml/kg. For primary screening all drugs are administered at the arbitrary dose of 10 mg/kg p.o. to groups of 4 rats.
The animals are anesthetized with halothane. […]
The following urodynamic variables are recorded:
The mean value of each variable is calculated before and after compound administration. For each compound the changes in the variables measured are compared to the values obtained before treatment and expressed as percent inhibition. The data are also subjected to 2-way analysis of variance to determine significant (p<0.05) changes in the variable measured.
Consider `CCC(C)(C)Nc1c(NCc2ccncc2)c(=O)c1=O` [Example 1, 3-(1,1-Dimethylpropylamino)-4-[(pyridin-4-ylmethyl)-amino]-cyclobut-3-ene-1,2-dione], for which the “% Red (F): percent reduction in the total number of spontaneous contractions in the hypertrophied rat bladder model” value is listed as -8 ± 4%.
